Measured values taken from patent publication US7138361B2, “Herbicidal heterocycles” (E. I. du Pont de Nemours and Company, priority 2000, dated 2006).

Legend:
Assay type in all cases: in vivo
[1] = test system: Nightshade; test: Test C preemergence; conditions: scale 0 to 100, 0 no effect, 100 complete control
[2] = test system: Sunflower; test: Test C preemergence; conditions: Rate 125 g/ha; scale 0 to 100, 0 no effect, 100 complete control
[3] = test system: Surinam grass (Brachiaria decumbens); test: Test C preemergence; conditions: for Plant response rating, Surinam grass: scale 0 to 100, 0 no effect, 100 complete control; for Plant response rating (0 to 100), Surinam grass: preemergence, visual evaluation after 12 to 14 days
Summary of the method: (§1)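 Plants held in greenhouse for 12–14 days post-application are scored by eye against controls on a 0–100 control scale. Application timing: preemergence on sown seed, or postemergence on 2–18 cm plants.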

[4] = test system: bermudagrass (Cynodon dactylon); test: Test C preemergence; conditions: for Plant response rating, Bermudagrass: scale 0 to 100, 0 no effect, 100 complete control; for Plant response rating (0 to 100 where 0 is no effect and 100 is complete control), Bermudagrass: preemergence, visual evaluation after 12 to 14 days
Summary of the method: as §1

[5] = test system: cocklebur (Xanthium strumarium); test: Test C preemergence; conditions: for Plant response rating, Cocklebur: scale 0 to 100, 0 no effect, 100 complete control; for Plant response rating (0 to 100), Cocklebur: preemergence, visual evaluation after 12 to 14 days
Summary of the method: as §1

[6] = test system: corn (Zea mays); test: Test C preemergence; conditions: for Plant response rating, Corn: scale 0 to 100, 0 no effect, 100 complete control; for Plant response rating (0 to 100), Corn: preemergence, visual evaluation after 12 to 14 days
Summary of the method: as §1

[7] = test system: crabgrass (Digitaria sanguinalis); test: Test C preemergence; conditions: for Plant response rating, Crabgrass: scale 0 to 100, 0 no effect, 100 complete control; for Plant response rating (0 to 100), Crabgrass: preemergence, visual evaluation after 12 to 14 days
Summary of the method: as §1

[8] = test system: giant foxtail (Setaria faberii); test: Test C preemergence; conditions: for Plant response rating, Foxtail, Giant: scale 0 to 100, 0 no effect, 100 complete control; for Plant response rating (0 to 100), Foxtail, Giant: preemergence, visual evaluation after 12 to 14 days
Summary of the method: as §1

[9] = test system: goosegrass (Eleusine indica); test: Test C preemergence; conditions: for Plant response rating, Goosegrass: scale 0 to 100, 0 no effect, 100 complete control; for Plant response rating (0 to 100), Goosegrass: preemergence, visual evaluation after 12 to 14 days
Summary of the method: as §1

[10] = test system: johnsongrass (Sorghum halepense); test: Test C preemergence; conditions: for Plant response rating, Johnsongrass: scale 0 to 100, 0 no effect, 100 complete control; for Plant response rating (0 to 100), Johnsongrass: preemergence, visual evaluation after 12 to 14 days
Summary of the method: as §1

[11] = test system: kochia (Kochia scoparia); test: Test C preemergence; conditions: for Plant response rating, Kochia: scale 0 to 100, 0 no effect, 100 complete control; for Plant response rating (0 to 100), Kochia: preemergence, visual evaluation after 12 to 14 days
Summary of the method: as §1

[12] = test system: lambsquarters (Chenopodium album); test: Test C preemergence; conditions: for Plant response rating, Lambsquarters: scale 0 to 100, 0 no effect, 100 complete control
Summary of the method: as §1

[13] = test system: morningglory (Ipomoea hederacea); test: Test C preemergence; conditions: for Plant response rating, Morningglory: scale 0 to 100, 0 no effect, 100 complete control
Summary of the method: as §1

[14] = test system: pigweed (Amaranthus retroflexus); test: Test C preemergence; conditions: for Plant response rating, Pigweed: scale 0 to 100, 0 no effect, 100 complete control
Summary of the method: as §1

[15] = test system: soybean (Glycine max); test: Test C preemergence; conditions: for Plant response rating, Soybean: scale 0 to 100, 0 no effect, 100 complete control
Summary of the method: as §1

[16] = test system: velvetleaf (Abutilon theophrasti); test: Test C preemergence; conditions: for Plant response rating, Velvetleaf: scale 0 to 100, 0 no effect, 100 complete control
Summary of the method: as §1

[17] = test system: woolly cupgrass (Eriochloa villosa); test: Test C preemergence; conditions: for Plant response rating, Cupgrass, Woolly: scale 0 to 100, 0 no effect, 100 complete control; for Plant response rating (0 to 100), Cupgrass, Woolly: preemergence, visual evaluation after 12 to 14 days
Summary of the method: as §1

[18] = test system: yellow nutsedge (Cyperus esculentus); test: Test C preemergence; conditions: for Plant response rating, Nutsedge: scale 0 to 100, 0 no effect, 100 complete control
Summary of the method: as §1

[19] = test system: barnyardgrass (Echinochloa crus-galli); test: Test C flooded paddy test; conditions: for Barnyardgrass plant response rating: Flooded Paddy, scale 0 to 100, 0 no effect, 100 complete control; for Plant response rating, Barnyardgrass: flooded paddy test, scale 0 to 100 (0 no effect, 100 complete control)
Summary of the method: (§2)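 Visual ratings (0 = no effect, 100 = complete control) were made 12–14 days after treatment, relative to greenhouse controls. Plants in the flooded paddy test were rice, smallflower flatsedge, duck salad and barnyardgrass, treated at the 2-leaf stage.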

[20] = test system: duck salad (Heteranthera limosa); test: Test C flooded paddy test; conditions: for Ducksalad plant response rating: Flooded Paddy, scale 0 to 100, 0 no effect, 100 complete control; for Plant response rating, Ducksalad: flooded paddy test, scale 0 to 100 (0 no effect, 100 complete control)
Summary of the method: as §2

[21] = test system: smallflower flatsedge (Cyperus difformis); test: Test C flooded paddy test; conditions: for Flatsedge plant response rating: Flooded Paddy, scale 0 to 100, 0 no effect, 100 complete control; for Plant response rating, Flatsedge: flooded paddy test, scale 0 to 100 (0 no effect, 100 complete control)
Summary of the method: as §2

[22] = test system: Sunflower; test: Test C preemergence; conditions: Rate 500 g/ha, visual evaluation after 12 to 14 days
[23] = preemergence, Rate 500 g/ha, visual evaluation after 12 to 14 days

CCC(C)c1ccn(C2CCN(c3ccc(C)c(OC)c3)C2=O)n1 (stereo not drawn) [Compound 80]
Plant response rating, Nightshade ([1]; Rate 62 g/ha): 90 | Plant response rating, Nightshade ([1]; Rate 125 g/ha): 100 | Plant response rating, Nightshade ([1]; Rate 250 g/ha): 100 | Plant response rating, Sunflower [2]: 30 | Plant response rating, Surinam grass ([3]; Rate 62 g/ha): 20 | Plant response rating, Surinam grass ([3]; Rate 125 g/ha): 70 | Plant response rating (0 to 100), Surinam grass ([3]; Rate 250 g/ha): 100 | Plant response rating (0 to 100), Surinam grass ([3]; Rate 500 g/ha): 100 | Plant response rating, Bermudagrass ([4]; Rate 62 g/ha): 100 | Plant response rating, Bermudagrass ([4]; Rate 125 g/ha): 100 | Plant response rating (0 to 100 where 0 is no effect and 100 is complete control), Bermudagrass ([4]; Rate 250 g/ha): 100 | Plant response rating (0 to 100 where 0 is no effect and 100 is complete control), Bermudagrass ([4]; Rate 500 g/ha): 100 | Plant response rating, Cocklebur ([5]; Rate 62 g/ha): 0 | Plant response rating, Cocklebur ([5]; Rate 125 g/ha): 50 | Plant response rating (0 to 100), Cocklebur ([5]; Rate 250 g/ha): 0 | Plant response rating (0 to 100), Cocklebur ([5]; Rate 500 g/ha): 100 | Plant response rating, Corn ([6]; Rate 62 g/ha): 0 | Plant response rating, Corn ([6]; Rate 125 g/ha): 30 | Plant response rating (0 to 100), Corn ([6]; Rate 250 g/ha): 0 | Plant response rating (0 to 100), Corn ([6]; Rate 500 g/ha): 60 | Plant response rating, Crabgrass ([7]; Rate 62 g/ha): 100 | Plant response rating, Crabgrass ([7]; Rate 125 g/ha): 100 | Plant response rating (0 to 100), Crabgrass ([7]; Rate 250 g/ha): 100 | Plant response rating (0 to 100), Crabgrass ([7]; Rate 500 g/ha): 100 | Plant response rating, Foxtail, Giant ([8]; Rate 62 g/ha): 0 | Plant response rating, Foxtail, Giant ([8]; Rate 125 g/ha): 100 | Plant response rating (0 to 100), Foxtail, Giant ([8]; Rate 250 g/ha): 40 | Plant response rating (0 to 100), Foxtail, Giant ([8]; Rate 500 g/ha): 50 | Plant response rating, Goosegrass ([9]; Rate 62 g/ha): 100 | Plant response rating, Goosegrass ([9]; Rate 125 g/ha): 100 | Plant response rating (0 to 100), Goosegrass ([9]; Rate 250 g/ha): 100 | Plant response rating (0 to 100), Goosegrass ([9]; Rate 500 g/ha): 100 | Plant response rating, Johnsongrass ([10]; Rate 62 g/ha): 20 | Plant response rating, Johnsongrass ([10]; Rate 125 g/ha): 60 | Plant response rating (0 to 100), Johnsongrass ([10]; Rate 250 g/ha): 60 | Plant response rating (0 to 100), Johnsongrass ([10]; Rate 500 g/ha): 70 | Plant response rating, Kochia ([11]; Rate 62 g/ha): 100 | Plant response rating, Kochia ([11]; Rate 125 g/ha): 100 | Plant response rating (0 to 100), Kochia ([11]; Rate 250 g/ha): 100 | Plant response rating (0 to 100), Kochia ([11]; Rate 500 g/ha): 100 | Plant response rating, Lambsquarters ([12]; Rate 62 g/ha): 100 | Plant response rating, Lambsquarters ([12]; Rate 125 g/ha): 100 | Plant response rating (0 to 100), Lambsquarters [12, 23]: 100 | Plant response rating, Lambsquarters ([12]; preemergence, Rate 250 g/ha): 100 | Plant response rating, Morningglory ([13]; Rate 62 g/ha): 0 | Plant response rating, Morningglory ([13]; Rate 125 g/ha): 20 | Plant response rating (0 to 100), Morningglory [13, 23]: 100 | Plant response rating, Morningglory ([13]; preemergence, Rate 250 g/ha): 100 | Plant response rating, Pigweed ([14]; Rate 125 g/ha): 0 | Plant response rating (0 to 100), Pigweed [14, 23]: 40 | Plant response rating, Pigweed ([14]; preemergence, Rate 250 g/ha): 0 | Plant response rating, Soybean ([15]; Rate 125 g/ha): 30 | Plant response rating (0 to 100), Soybean [15, 23]: 100 | Plant response rating, Soybean ([15]; preemergence, Rate 250 g/ha): 50 | Plant response rating, Velvetleaf ([16]; Rate 125 g/ha): 40 | Plant response rating (0 to 100), Velvetleaf [16, 23]: 100 | Plant response rating, Velvetleaf ([16]; preemergence, Rate 250 g/ha): 70 | Plant response rating, Cupgrass, Woolly ([17]; Rate 62 g/ha): 90 | Plant response rating, Cupgrass, Woolly ([17]; Rate 125 g/ha): 100 | Plant response rating (0 to 100), Cupgrass, Woolly ([17]; Rate 250 g/ha): 100 | Plant response rating (0 to 100), Cupgrass, Woolly ([17]; Rate 500 g/ha): 100 | Plant response rating, Nutsedge ([18]; Rate 62 g/ha): 0 | Plant response rating, Nutsedge ([18]; Rate 125 g/ha): 20 | Plant response rating (0 to 100), Nutsedge [18, 23]: 0 | Plant response rating, Nutsedge ([18]; preemergence, Rate 250 g/ha): 0 | Barnyardgrass plant response rating ([19]; Rate 250 g/ha): 90 | Barnyardgrass plant response rating ([19]; Rate 500 g/ha): 90 | Plant response rating, Barnyardgrass ([19]; Rate 62 g/ha): 0 | Plant response rating, Barnyardgrass ([19]; Rate 125 g/ha): 60 | Ducksalad plant response rating ([20]; Rate 250 g/ha): 100 | Ducksalad plant response rating ([20]; Rate 500 g/ha): 100 | Plant response rating, Ducksalad ([20]; Rate 62 g/ha): 80 | Plant response rating, Ducksalad ([20]; Rate 125 g/ha): 100 | Flatsedge plant response rating ([21]; Rate 250 g/ha): 90 | Flatsedge plant response rating ([21]; Rate 500 g/ha): 100 | Plant response rating, Flatsedge ([21]; Rate 62 g/ha): 90 | Plant response rating, Flatsedge ([21]; Rate 125 g/ha): 90 | Plant response rating (0 to 100), Sunflower [22]: 60
